Where a name gives a salt, the structure may show the parent alone. No end group written: not given here.
Key:
[1] = test system: phospho-AKT (T308 and S473); assay: MK2206-HCl treatment, western blot of phospho-AKT; type: cell-based; conditions: invasive cell derivatives; 2 μM (MCF7) or 4 μM (MDA-MB-468) for 2 days
Description: The invasive TGF-β-treated and drug-resistant MCF7 and MDA-MB-468 populations were treated with MK2206-HCl, a pan-AKT inhibitor, purchased from SelleckChem (Boston, MA). For this treatment, 8×10^5 cells were plated on 6-well plates. After 24 h of attachment, the cells were treated with MK2206-HCl for 2 days (2 μM dose for MCF7 cells and 4 μM dose for MDA-MB-468 cells). Cells treated with equivalent volume of DMSO were used as controls. After treatment, the cells were counted and an equal number of cells was plated on Matrigel and in transwell inserts for the invasion and 3D growth assays, as described in the relevant sections. The treated and non-treated cells were similarly counted and harvested for protein and RNA extraction for western blotting and qRT-PCR, respectively. Total cellular protein was extracted as previously described. […] et al., (2019) Bioconjug Chem 30, 907-919. Protein concentration was determined by Lowry assay and equal concentration of protein extracts (40 μg) was loaded on SDS-PAGE gels, transferred onto nitrocellulose membrane and immunoblotted with primary antibodies overnight. Anti-EDB-FN antibody (G4 clone) was used at 1:1000 dilution. […]

[2] = test system: TGF-β-treated and drug-resistant MCF7 and MDA-MB-468 cells; assay: MK2206-HCl treatment, transwell invasion assay; type: cell-based; conditions: TGFβ-treated and drug-resistant cell derivatives; 2 μM (MCF7) or 4 μM (MDA-MB-468) for 2 days
Description: (§1) The invasive TGF-β-treated and drug-resistant MCF7 and MDA-MB-468 populations were treated with MK2206-HCl, a pan-AKT inhibitor, purchased from SelleckChem (Boston, MA). For this treatment, 8×10^5 cells were plated on 6-well plates. After 24 h of attachment, the cells were treated with MK2206-HCl for 2 days (2 μM dose for MCF7 cells and 4 μM dose for MDA-MB-468 cells). Cells treated with equivalent volume of DMSO were used as controls. After treatment, the cells were counted and an equal number of cells was plated on Matrigel and in transwell inserts for the invasion and 3D growth assays, as described in the relevant sections. The treated and non-treated cells were similarly counted and harvested for protein and RNA extraction for western blotting and qRT-PCR, respectively.
For the invasion assay, breast cancer cells were starved in serum-depleted media overnight. The next day, 1-2×10^5 cells were plated in transwell inserts (VWR, Radnor, PA) coated with 0.3 mg/mL Corning™ Matrigel™ Membrane Matrix (Corning, NY). After 1-2 days, the inserts were swabbed with Q-tips to remove the plated cells. The invading cells on the bottom of the inserts were fixed with 4% paraformaldehyde followed by staining with 0.1% crystal violet for 20 min. Excess stain was washed under tap water and images of the purple migrated cells were taken using the Moticam T2 camera with 10× objective lens.

DLD1-DR tumors = assay: MK2206-HCl therapy of DLD1-DR tumor-bearing mice, tumor volume; type: in vivo; conditions: for average tumor volume: treated group
Description: For therapeutic monitoring, 3-4×10^6 DLD1-DR cells suspended in Matrigel-PBS mixture (1:1) were subcutaneously injected in the left flanks of 10 nude mice (100 μL per mouse, mice labeled TM1-TM10). Tumor volumes were monitored and measured once a week using a Vernier caliper. When the average tumor volumes reached 100 mm^3, mice were randomized into 2 groups of 5: vehicle (mice #TM1, TM3, TM4, TM5, & TM10) and treated (mice #TM2, TM6, TM7, TM8, & TM9). Once a week, mice in the treated group received MK2206-HCl (100 mg/kg) and those in the vehicle group were injected with equivalent volume of DMSO, as described previously. Smith, J. A., L. J. Stallons, and R. G. Schnellmann, Am J Physiol Renal Physiol, 2014. 307(4): p. F435-44. After 3 weeks of treatment, tumor volumes increased over 1000 mm^3 and the experiment was terminated. The animals were then euthanized, and the tumors were harvested for post-mortem histology and IHC. Tumor volumes were calculated as [(Width)2×Length]/2.

EDB-FN [3] = assay: MK2206-HCl treatment, qRT-PCR of EDB-FN; type: cell-based; conditions: MDA-MB-468-DR cells, 4 μM MK2206-HCl for 2 days, vs DMSO-treated controls
Description: as §1
Total RNA was extracted from cells and tissues using the RNeasy Plus Mini Kit (Qiagen, Germantown, MD), according to manufacturer's instructions. RNA concentration was determined and 1 μg of RNA was used to set up reverse transcription using the miScript II RT Kit (Qiagen) and qPCR was performed using the SyBr Green PCR Master Mix (Applied Biosystems, CA). Gene expression was analyzed by the 2-ΔΔCt method with 18S or R-actin expression as the control.

EDB-FN [4] = target: T1, EDB-FN (Homo sapiens, UniProt P02751); assay: Peptide binding study of OSCC spheroids with ZD2-Cy5.5; type: cell-based; conditions: ZD2-Cy5.5 125 nM, 15 minutes, ratio to Hoechst
Description: Coverslip plates (4-well, Ibidi GmbH, Martinsried, Germany) were coated with Cultrex Basement Membrane Matrix (350 μL, Trevigen, Gaithersburg, MA, USA). For spheroid formation, 2×10^5 OSCC cells were seeded into prepared wells, incubated for 2 days, and photographed with the Moticam T2 camera (Motic, Hong Kong, China). For peptide binding, 1×10^5 cells were seeded into prepared wells and incubated for 2 days. Spheroids were stained with ZD2-Cy5.5 (125 nM), synthesized as previously described, and Hoechst (1:2000 dilution) (Invitrogen, Carlsbad, CA, USA) dyes for 15 minutes, washed 3× with DPBS (Thermo Fisher Scientific), and imaged with confocal laser scanning microscopy using the Olympus FV1000 system (Olympus Life Science, Tokyo, Japan).
Confocal fluorescence images were analyzed using FIJI. For quantification, images were thresholded to generate ROIs of both stains. For spheroid size, the average size of Hoechst ROIs was calculated. For staining intensity, the average signal intensities of ZD2-Cy5.5 and Hoechst ROIs were calculated, along with the ratio between the average intensities.

EDB-FN [5] = target: T1, EDB-FN; assay: ZD2-Cy5.5 staining of human tissue; set-up: from tissue; host or cells: deparaffinized sections of human pancreatic cancer, PanIN and normal pancreas; conditions: 500 nM
Description: Tissue sections from PaCa patients (Case Comprehensive Cancer Center, Cleveland, OH) were deparaffinized with xylene, ethanol, and washed with water. Blocking was performed with 10% goat serum (Invitrogen, Carlsbad, CA) in PBS with 0.1% Tween 20 (PBS-T) for 30 minutes and incubated with 500 nM ZD2-Cy5.5 in PBS-T for 1 hour at 37° C. Following three washes with PBS-T, the sections were mounted using Fluoroshield mounting medium (Abcam, Cambridge, UK). Images were acquired on a FV1000 (Olympus, Waltham, MA) confocal microscope using pre-programmed emission and excitation filters for Cy5.5 (excitation: 635 nm; emission: 693 nm) and DAPI (excitation: 405 nm; emission: 461 nm), using a 10× objective lens. All tissue samples were imaged at the same laser power and sensor gain. Images were generated from single-channel grayscale images using FIJI software.

EDB-FN [6] = assay: ZD2-Cy5.5 staining of frozen tissue sections, BC-1 blocking experiment; conditions: PaCa xenograft tissue sections, excess BC1 antibody
Description: For assessment of binding specificity of ZD2 peptide, flash frozen samples of tumor and normal tissues were collected from the euthanized tumor bearing mice and embedded in optimal cutting temperature media. The embedded samples were then immersed in liquid nitrogen for 5 minutes and transferred to −80° C. for storage before cryosectioning. Tissue sections were blocked for 1 hr in PBS containing 0.05% Tween-20 and 10% normal goat serum (Gibco, Gaithersburg, MD) and then stained with BC-1 primary monoclonal antibody (1:400) or ZD2-Cy5.5 (500 nM) at 4° C. overnight or room temperature incubation for 2.5 hr, respectively, and then washed with PBS-T buffer. Secondary Alexa Fluor 594 anti-rabbit was incubated with the BC-1 treated sections for 1 hour at room temperature (1:1000). For the blocking experiment, the tissue sections were first incubated with an excess of BC1 antibody at 4° C. overnight, then washed three times with PBS-T. The sections were then incubated with ZD2-Cy5.5 at room temperature incubation for 2.5 hr. The stained sections were washed with PBS-T buffer and images were acquired on an Olympus FV1000 (Waltham, MA) confocal microscope using pre-programmed emission and excitation filters for Cy5.5 (excitation: 635 nm; emission: 693 nm) and DAPI (excitation: 405 nm; emission: 461 nm), using a 10× objective lens.

T1 sequence (P02751 32-2267 isoform P02751-13 limits assumed): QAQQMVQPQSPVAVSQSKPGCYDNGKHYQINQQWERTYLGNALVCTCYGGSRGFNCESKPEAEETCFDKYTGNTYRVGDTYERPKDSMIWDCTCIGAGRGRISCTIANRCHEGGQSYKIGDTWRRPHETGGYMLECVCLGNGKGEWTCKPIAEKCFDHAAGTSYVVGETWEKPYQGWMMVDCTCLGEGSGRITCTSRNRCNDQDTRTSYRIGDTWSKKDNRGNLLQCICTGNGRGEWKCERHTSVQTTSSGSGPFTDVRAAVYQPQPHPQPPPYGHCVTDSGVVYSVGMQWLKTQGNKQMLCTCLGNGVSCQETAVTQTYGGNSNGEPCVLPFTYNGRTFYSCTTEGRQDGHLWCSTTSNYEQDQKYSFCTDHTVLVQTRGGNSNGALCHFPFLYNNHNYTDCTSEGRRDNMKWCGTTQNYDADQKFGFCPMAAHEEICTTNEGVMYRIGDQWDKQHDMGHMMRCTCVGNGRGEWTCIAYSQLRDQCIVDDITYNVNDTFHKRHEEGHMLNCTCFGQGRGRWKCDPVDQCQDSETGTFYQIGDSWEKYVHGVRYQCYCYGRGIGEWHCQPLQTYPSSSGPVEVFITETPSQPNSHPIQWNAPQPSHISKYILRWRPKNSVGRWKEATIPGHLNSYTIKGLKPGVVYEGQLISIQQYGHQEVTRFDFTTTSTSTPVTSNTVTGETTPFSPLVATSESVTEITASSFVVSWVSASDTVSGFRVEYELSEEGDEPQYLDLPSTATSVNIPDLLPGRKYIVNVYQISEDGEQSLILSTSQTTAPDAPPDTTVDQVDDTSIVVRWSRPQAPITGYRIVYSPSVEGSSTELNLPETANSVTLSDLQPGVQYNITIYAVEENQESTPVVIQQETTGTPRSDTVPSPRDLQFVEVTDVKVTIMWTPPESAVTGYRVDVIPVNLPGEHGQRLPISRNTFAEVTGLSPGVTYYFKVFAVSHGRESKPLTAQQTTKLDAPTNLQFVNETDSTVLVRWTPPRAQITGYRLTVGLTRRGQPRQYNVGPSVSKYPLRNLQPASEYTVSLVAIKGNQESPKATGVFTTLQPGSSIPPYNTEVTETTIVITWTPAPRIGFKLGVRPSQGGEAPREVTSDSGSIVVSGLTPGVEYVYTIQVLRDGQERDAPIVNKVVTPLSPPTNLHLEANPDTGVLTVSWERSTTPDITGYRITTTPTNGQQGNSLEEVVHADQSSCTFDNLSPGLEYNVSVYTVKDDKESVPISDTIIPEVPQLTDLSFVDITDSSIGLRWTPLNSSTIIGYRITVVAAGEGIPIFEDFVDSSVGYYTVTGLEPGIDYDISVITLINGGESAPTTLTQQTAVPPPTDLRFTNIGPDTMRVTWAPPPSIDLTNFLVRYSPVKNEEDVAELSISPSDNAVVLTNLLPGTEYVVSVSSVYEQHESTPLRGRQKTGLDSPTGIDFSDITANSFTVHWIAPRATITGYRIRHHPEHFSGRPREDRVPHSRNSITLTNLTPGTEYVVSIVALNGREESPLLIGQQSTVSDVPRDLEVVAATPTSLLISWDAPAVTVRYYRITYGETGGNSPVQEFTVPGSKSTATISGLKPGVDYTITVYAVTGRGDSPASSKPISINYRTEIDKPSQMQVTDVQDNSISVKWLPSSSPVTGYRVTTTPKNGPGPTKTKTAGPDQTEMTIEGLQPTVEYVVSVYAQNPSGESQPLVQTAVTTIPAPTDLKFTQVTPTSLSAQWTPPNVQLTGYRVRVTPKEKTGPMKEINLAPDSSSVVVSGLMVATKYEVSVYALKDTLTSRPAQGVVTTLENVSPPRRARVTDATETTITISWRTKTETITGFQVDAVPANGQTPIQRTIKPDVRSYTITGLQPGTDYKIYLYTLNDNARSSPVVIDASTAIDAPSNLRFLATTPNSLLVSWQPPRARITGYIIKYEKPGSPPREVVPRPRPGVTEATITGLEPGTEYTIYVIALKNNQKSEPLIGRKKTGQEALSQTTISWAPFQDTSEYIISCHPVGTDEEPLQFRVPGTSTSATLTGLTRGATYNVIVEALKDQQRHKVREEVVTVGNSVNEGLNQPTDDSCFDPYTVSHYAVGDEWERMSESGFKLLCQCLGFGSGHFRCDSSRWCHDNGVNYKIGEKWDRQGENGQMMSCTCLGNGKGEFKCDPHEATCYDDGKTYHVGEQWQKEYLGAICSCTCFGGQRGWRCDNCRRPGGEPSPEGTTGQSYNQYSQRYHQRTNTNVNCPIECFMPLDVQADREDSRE

## NC1(c2ccc(-c3nc4ccn5c(=O)[nH]nc5c4cc3-c3ccccc3)cc2)CCC1 [MK2206-HCl]
[1]
  inhibition of phospho-AKT (T308 and S473): robust inhibition
[2]
  invasive potential: reduced the invasive potential
DLD1-DR tumors; DLD1-DR tumors, MK2206-HCl 100 mg/kg once a week for 3 weeks
  tumor response to therapy: did not respond to therapy
DLD1-DR tumors; week 1 (baseline), MK2206-HCl 100 mg/kg once a week
  average tumor volume: 110.5±11.97 mm^3
DLD1-DR tumors; week 4, after 3 weeks of MK2206-HCl 100 mg/kg once a week
  average tumor volume: 1249.7±199.3 mm^3
EDB-FN [3]
  decrease in EDB-FN mRNA: 10-15%

## ZD2-Cy5.5: EDB-FN-specific fluorescent peptide probe, ZD2 peptide labeled with Cy5.5 (TVRTSAD; also: labeled with Cy5.5, site and linker not given here)
EDB-FN [4]
  staining intensity of SCC4 relative to HSC3 spheroids: approximately 2 fold
EDB-FN [5]; human PaCa tissue
  ZD2-Cy5.5 binding: high
EDB-FN [5]; normal pancreatic tissue
  ZD2-Cy5.5 binding: low
EDB-FN [5]; precancerous PanIN tissue
  ZD2-Cy5.5 binding: moderate
EDB-FN [6]
  ZD2-Cy5.5 binding in the presence of the anti-EDB-FN antibody: blocked

— patent US20240374763A1, “DIAGNOSIS AND MONITORING USING EXTRADOMAIN-B FIBRONECTIN TARGETED PROBES” (Case Western Reserve University, priority 2020, published 2024)
